Results on seven compounds are retold here after PubChem BioAssay (NCI).

Assay in all cases: NCI tumour cell line growth inhibition, 48 h
The subject of test [1] is 786-0 renal.
Test [2] has as its system MOLT-4 leukemia.
Test [3] has as its system NCI-H226 lung.
Test [4] deals with OVCAR-4 ovarian.
Test [5] concerns OVCAR-5 ovarian.
Test [6] has as its system RPMI-8226 leukemia.
Test [7] relates to SF-268 CNS.
Test [8] has as its system SF-295 CNS.
Test [9] deals with SK-MEL-5 melanoma.
For test [10], the system named is T-47D breast.

“And” between values parts separate entries of the source, which are not always exact repeats. Equal entries are not always repeated.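 These data come from cells grown in 96-well plates and exposed to compound for 48 hours at five concentrations. GI50: concentration for 50% inhibition of growth. TGI denotes the concentration required for complete inhibition of growth.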

Consider `CCN(CC)CC[n+]1cc2cc(OC)c(OC)cc2c2ccc3cc4c(cc3c21)OCO4`, for which the GI50 was 0.903 µM in test [1]; 0.37 µM in [2]; 1.35 µM in test [3]; 0.775 µM in [4]; 1.01 µM in test [5]; 0.303 µM in test [6]. Also, the GI50 in [7] is 0.386 µM; in test [8] it was 0.429 µM; in test [9] it was 1.31 µM; in test [10], 0.378 µM. Also, the TGI in test [1] was 3.78 µM; in [2], 4.64 µM; in [3], 3.24 µM; in test [4], 4.16 µM; in test [5], 3.17 µM; in test [6] it was 1.73 µM. Further, the TGI in test [7] is 2.71 µM; in [8] it was 2.36 µM; in [9], 2.61 µM; in test [10], 12.1 µM.
`CNC(=O)CN1CCC(Oc2cc3c(Nc4cccc(Cl)c4F)ncnc3cc2OC)CC1`: the GI50 in [1] was 5.28 µM and 5.31 µM; in test [2], 16 µM and > 6.28 µM; in test [3], 13.9 µM and > 6.23 µM; in test [4] it was 20.1 µM and > 7.05 µM; in test [5], 1.9 µM and 1.56 µM; in [6], 32.2 µM and > 10 µM. The GI50 in [7] is 8.25 µM and 4.25 µM; in test [8], 12.5 µM and > 5.62 µM; in [9], 13.4 µM and 4.49 µM; in [10], 1.24 µM and 0.53 µM. Further, the TGI in [1] is 27.8 µM and > 10 µM; in test [2], above 74.5 µM; in test [3], 42.1 µM and > 10 µM; in [4], 98.5 µM and > 10 µM; in [5] it was 22.4 µM and > 10 µM; in test [6], above 100 µM. Besides, the TGI in test [7] is above 45.2 µM; in test [8], 29.3 µM and > 10 µM; in test [9], 26.5 µM and > 10 µM; in test [10], 18.1 µM and > 7.9 µM.
As to `Nc1c2ccccc2nc2ccccc12` (tested in a mixture with another compound), the GI50 is 2.45 µM in test [1]; 2.32 µM in test [2]; 1.17 µM in test [3]; 1.84 µM in [4]; 2.96 µM in test [5]; 3.86 µM in test [6]. Moreover, the GI50 in [7] is 2.13 µM; in [8], 2.1 µM; in [9] it was 1.6 µM; in [10], 1.87 µM. Moreover, the TGI in test [1] was 9.4 µM; in test [2], 13.1 µM; in test [3] it was 3.03 µM; in test [4], 6.9 µM; in test [5] it was 13.4 µM; in test [6], above 100 µM. The TGI in test [7] stood at 6.08 µM; in [8] it was 10.5 µM; in [9], 3.01 µM; in test [10] it was 5.98 µM.
For the compound `C[C@@H]1OCC2(CCN(c3cnc(Sc4ccnc(N)c4Cl)c(N)n3)CC2)[C@@H]1N`, the GI50 in test [1] was 98.6 µM; in test [2] it was above 90.9 µM; in test [4] it was 26.9 µM; in [5], above 100 µM; in test [6] it was 37.6 µM; in test [7] it was 27.7 µM. Besides, the GI50 in test [8] was above 100 µM; in test [9], above 93.3 µM; in test [10], 46.3 µM. Moreover, the TGI in test [1], in test [2], in test [3], in test [4], in test [5] and in test [6] was above 100 µM throughout. The TGI in [7], in [8], in test [9] and in test [10] was above 100 µM in each case.
Take `CCCCCC/C=C1\CCC(CN(C)C)C1=O` (stereo not drawn): the TGI was 3.99 µM in test [1]; 18.7 µM in test [2]; 36.5 µM in test [3]; 45.3 µM in test [4]; 30.8 µM in [5]; 4.7 µM in test [6]. Also, the TGI in test [7] worked out at 14.3 µM; in test [8] it was 27 µM; in [9], 27.5 µM; in [10] it was 9.81 µM.
Take `C/C(=C\c1ccn(-c2ccc(N)cc2F)n1)[C@@H]1C[C@@H]2O[C@]2(C)CCC[C@H](C)[C@H](O)[C@@H](C)C(=O)C(C)(C)[C@@H](O)CC(=O)O1`: the GI50 in test [1] was 0.0992 µM; in test [2], 0.0286 µM; in [3], 5.45 µM; in test [4], 0.4 µM; in [5] it was 0.116 µM; in test [6], 0.0204 µM. Further, the GI50 was 0.0822 µM in test [7], 0.0576 µM in test [8], 0.0199 µM in test [9] and 0.0605 µM in test [10]. In addition, the TGI in test [1] is above 50 µM; in test [2], above 21.8 µM; in test [3], above 50 µM; in [4] it was above 50 µM; in test [5], above 50 µM; in [6] it was above 50 µM. In addition, the TGI in test [7], in [8] and in [10] was above 50 µM in each case.
For the compound `Clc1ccc2c(NCCNc3nc(N4CCCC4)nc4ccccc34)ccnc2c1`, the GI50 was 1.17 µM in test [1]; 0.538 µM in test [2]; 1.95 µM in test [3]; 1.28 µM in test [4]; 2.15 µM in test [5]; 1.76 µM in [6]. The GI50 was 1.59 µM in test [7], 1.47 µM in test [8], 1.64 µM in [9] and 1.6 µM in test [10]. The TGI amounted to 3.18 µM in test [1]; 5.1 µM in test [2]; 4.06 µM in [3]; 3.58 µM in test [4]; 6.38 µM in test [5]; 4.96 µM in test [6]. Also, the TGI in test [7] was 5.41 µM; in test [8], 2.88 µM; in [9], 3.02 µM; in [10], 3.99 µM.
